Reference: PubChem BioAssay (NCI)
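Briefly, cells in 96-well plates were exposed to five compound concentrations for 48 h, and endpoints were estimated by linear interpolation. Here, GI50 denotes the concentration required for 50% inhibition of growth. TGI: concentration producing complete growth inhibition.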

Tests used:
Assay in all cases: NCI tumour cell line growth inhibition, 48 h
[1] = test system: HCT-15 colon
[2] = test system: M14 melanoma
[3] = test system: MDA-MB-231 breast
[4] = test system: MDA-MB-435
[5] = test system: OVCAR-4 ovarian
[6] = test system: SF-268 CNS
[7] = test system: SK-MEL-2 melanoma
[8] = test system: T-47D breast
[9] = test system: U251 CNS
[10] = test system: OVCAR-8 ovarian

Compound | GI50 [1] [µM] | TGI [1] [µM] | GI50 [2] [µM] | TGI [2] [µM] | GI50 [3] [µM] | TGI [3] [µM] | GI50 [4] [µM] | TGI [4] [µM] | GI50 [5] [µM] | TGI [5] [µM] | GI50 [6] [µM] | TGI [6] [µM] | GI50 [7] [µM] | TGI [7] [µM] | GI50 [8] [µM] | TGI [8] [µM] | GI50 [9] [µM] | TGI [9] [µM] | TGI [10] [µM] | GI50 [10] [µM]
COc1cc(C(=O)N2CCN(c3ncnc4ccccc34)CC2)c(N)cc1OCc1ccccc1 | 16.7 | 31 | 15.2 | 28.6 | 13.9 | 35.3 | 13.1 | 27.4 | 13.2 | 47 | 14.1 | 30.1 | 16.5 | 41.3 | 7.08 | 40.9 | 11.3 | 23.3 | – | –
COC(=O)C(C(=O)OC)C1CCCC(=O)C1 (stereo not given) | – | > 100 | – | > 100 | – | – | – | – | – | > 100 | – | > 100 | – | 0.503 | – | – | – | > 100 | > 100 | –
CCC[CH2][Sn]1([CH2]CCC)[O]CC(CN(C)Cc2ccccc2)[O]1 (stereo not given) | 8.29 | 20.3 | 2.45 | 7.76 | – | – | – | – | 10.7 | 23 | 5.89 | 17.7 | 4.27 | 15.9 | – | – | 5.75 | 17.8 | 24.6 | 11.9
Cc1cccc(C)c1NC(=O)C1C(=O)N(c2c(C)cccc2C)C(=O)/C1=N\N (stereo not given) | – | > 100 | – | > 100 | – | – | – | – | – | > 100 | – | > 100 | – | > 100 | – | – | – | > 100 | > 100 | –
O=C(CCN1CCN(c2ccccc2)CC1)N1CCc2c([nH]c3ccccc23)C1c1cccnc1 (stereo not given) | – | 30.9 | – | 31.2 | – | – | – | – | – | 33 | – | – | – | 30.4 | – | – | – | 30 | 30.4 | –
NC(=O)/N=C1/CCC2C3CCCC2C13 | – | – | – | > 100 | – | – | – | – | – | > 100 | – | > 100 | – | > 100 | – | – | – | > 100 | > 100 | –
CCN(CC)c1ccc(C(O)C2=CC(=O)c3ccccc3C2=O)cc1 (stereo not given) | 3.03 | > 32.1 | 2.1 | 4.57 | 1.53 | 4.61 | 1.58 | 2.99 | 1.27 | 3.1 | > 100 | > 100 | 1.57 | 3.71 | 2.69 | > 100 | 1.32 | 7.34 | – | –
CCOC(=O)c1cc2c(cc1Cl)SC(N(c1ccc(OC)cc1)S(=O)(=O)c1ccc(Cl)cc1)=NS2(=O)=O | 32.3 | > 100 | 38.7 | > 100 | 47 | > 100 | 22.1 | 57 | 26.1 | > 100 | 23.5 | 67.6 | 24.7 | > 100 | 12.1 | 36.1 | 29.1 | 88.4 | – | –
COC(=O)c1cccn1C(=O)n1cccc1 | – | – | – | > 100 | – | – | – | – | – | > 100 | – | > 100 | – | > 100 | – | – | – | > 100 | > 100 | –
O=C(COc1cc(O)c2c(=O)cc(-c3ccccc3)oc2c1)Nc1ccccc1C(F)(F)F | 3.28 | 21.1 | 27.6 | > 100 | 2.04 | 5.26 | 6.03 | > 100 | 2.45 | 5.94 | 4.94 | 26.1 | 15.1 | 38 | – | – | 2.01 | 4.45 | 32.1 | 3.67
NCCOCCOCCNc1nc(-c2ccccc2)nc(N2CCN(c3ccccn3)CC2)n1 | 13.1 | 27.9 | 2.16 | 5.31 | 14.5 | 28.8 | 11.4 | 24.5 | 13.4 | 26.3 | 15.9 | 30.8 | – | – | 11.7 | 30.3 | 12.1 | 26.3 | 34.5 | 15.8
COc1cc(C2SCC(=O)N2c2ncc(C)s2)cc(OC)c1OC (stereo not given) | 16.3 | > 50 | 21 | > 50 | – | – | 2.91 | 24.9 | > 50 | > 50 | > 50 | > 50 | > 50 | > 50 | – | – | 18.1 | > 50 | > 50 | 35.4
CN(C)CCNC(=O)c1cccc(N(C)C(=O)c2ccccc2)c1[N+](=O)[O-] | – | > 100 | – | > 100 | – | > 100 | – | > 100 | – | – | – | > 100 | – | > 100 | – | > 100 | – | > 100 | > 100 | –
C/C(CC(=O)Nc1ccc(C)c(C)c1)=N\NC(N)=O | – | – | – | > 100 | – | – | – | – | – | – | – | > 100 | – | > 100 | – | – | – | > 100 | > 100 | –
CC(C)([NH-])CO.CC(C)([NH-])CO.[Cl][Cd][Cl] | 20.3 | 41.4 | 18 | 33.4 | – | – | – | – | 12.4 | 25.8 | 18.4 | 35.3 | 15.6 | 29.8 | – | – | 15.4 | 28.8 | > 100 | 52.8
Cc1ccc(NC(=O)CC2Sc3ccccc3NC2=O)c(C)c1 (stereo not given) | – | – | – | 36.5 | – | – | – | – | – | 48.1 | – | 60.7 | – | 18.2 | – | – | – | 33.1 | 37.4 | –
O=[P+](O)c1ccsc1 | – | > 100 | – | > 100 | – | – | – | – | – | – | – | > 100 | – | – | – | – | – | > 100 | > 100 | –
O=C(c1ccccc1)C1OC12C(=O)Nc1c(Cl)cc(Cl)cc12 (stereo not given) | – | > 70 | – | > 82.4 | – | – | – | – | – | > 39.9 | – | > 100 | – | > 100 | – | – | – | > 100 | 51.1 | –
Oc1ccc(C(c2ccc(O)cc2)c2ccc(O)cc2)cc1 | – | 55.3 | – | – | – | 41.8 | – | 46.1 | – | 29.1 | – | > 100 | – | 55 | – | 41 | – | 83.7 | 32.6 | –
Cc1csc(/C=C/C(=O)c2nnn(-c3ccnc4c(C(F)(F)F)cccc34)c2C)c1 | 57.5 | > 100 | > 100 | > 100 | 29.2 | > 100 | 56.9 | > 100 | – | – | 25.8 | > 100 | > 100 | > 100 | 21.1 | > 100 | 39.2 | > 100 | > 100 | > 100
